Source: paper PMC7461116, “Synthesis, Anticonvulsant and Antinociceptive Activity of New Hybrid Compounds: Derivatives of 3-(3-Methylthiophen-2-yl)-pyrrolidine-2,5-dione” (International Journal of Molecular Sciences, 2020)
Counter-ions that a name gives are not always drawn.

Key:
[1] = system: maximal electroshock seizures; assay: Maximal electroshock seizure (MES) test; type: in vivo, mice; conditions: Mus musculus; mice, ip, 100 mg/kg, 0.5 h; read-out: MES: number of mice protected/number of mice tested (converted)
Experimental: The MES test was performed as previously described. Stimuli (25 mA, 0.2 s, 50 Hz) were generated by a constant current stimulator (Rodent shocker, Type 221, Hugo Sachs Elektronik, Germany) and delivered with the use of auricular electrodes. During the stimulation, each mouse was restrained manually, and immediately after the stimulation gently released for observation. The endpoint was the tonic extension of the hind limbs. Mice not displaying hindlimb tonic extension were considered to be protected from seizure. The initial anticonvulsant screening of the tested compounds was performed at a fixed dose of 100 mg/kg (four mice per group). […] To evaluate the ED50, at least three groups of animals were injected with various doses of tested compounds. Each group consisted of six animals.

[2] = system: 6 Hz psychomotor seizures; assay: 6 Hz (32 mA) psychomotor seizure test; type: in vivo, mice; conditions: Mus musculus, 32 mA; for responders at 100 mg/kg: mice, ip, 0.5 h, read-out: 6 Hz: number of mice protected/number of mice tested (converted)
Description: Psychomotor seizures were induced via corneal stimulation (6 Hz, 32 mA, 0.2 ms rectangular pulse width, 3 s duration) using a constant-current device (ECT Unit 57800, Ugo Basile, Italy). A drop of 1% solution of lidocaine hydrochloride was applied to the mouse corneas before stimulation to provide local anesthesia and ensure optimal current conductivity. After the electrical stimulation, mice were gently released and observed for the presence or absence of seizure activity, being characterized by immobility associated with rearing, forelimb clonus, twitching of the vibrissae, stun, and Straub-tail. Lack of the above symptoms or their cessation within 10 s from the stimulation was considered as absence of seizure activity. The initial anticonvulsant screening of the tested compounds was performed at a fixed dose of 100 mg/kg (four mice per group). Then ED50 was calculated for active compounds as described above.

[3] = system: motor impairment on rotarod; assay: Rotarod test (acute neurotoxicity, NT); type: in vivo; conditions: ip, 100 mg/kg, 0.5 h
Experimental: In this test mice were trained to balance on an accelerating rotarod that rotated at 10 rotations per minute (Rotarod apparatus, May Commat RR0711, Turkey; rod diameter: 3 cm). During the training session, the animals were placed on a rotating rod for 3 min with an unlimited number of trials. Proper experiment was conducted 24 h after the training trial. On the test day, trained mice were intraperitoneally pretreated with the test compound at a dose of 100 mg/kg and just before the MES test were tested on the rotarod. Neurotoxicity was indicated by the inability of the animal to maintain equilibration on the rod for 1 min. […] Each group consisted of six animals.

[4] = system: PTZ-induced clonic seizures; assay: Subcutaneous pentylenetetrazole (scPTZ) seizure test; type: in vivo; conditions: mice, 100 mg/kg
Experimental: Clonic convulsions were induced by the subcutaneous (sc) administration of PTZ at a dose of 100 mg/kg. After PTZ injection, the mice were placed separately and observed during the next 30 min for the occurrence of clonic seizures. Clonic seizures were defined as clonus of the whole body lasting more than 3 s, with an accompanying loss of righting reflex. The latency to first clonus, the number of seizure episodes, and mortality rate were noted and compared with vehicle-treated and drug-treated groups. The absence of clonic convulsions within the observed time period was interpreted as the compound’s ability to protect against PTZ-induced seizures.

[5] = system: Hep G2 cells; assay: Hepatotoxicity, PrestoBlue viability assay; type: cell-based, human; conditions: 1–100 μM, 24 h
Experimental: Hepatotoxicity of tested compounds was assessed in PrestoBlue (Thermo Fisher Scientific, Waltham, MA, USA) Experiments on microplate reader (SpectraMax® iD3, Molecular Devices, San Jose, CA, USA) using human hepatocellular carcinoma cells (Hep G2) ATCC® […]. The cells were cultured in standard conditions (37 °C, 5% CO2), in Dulbecco’s Modified Eagle’s Medium-high glucose, (DMEM, Gibco, Thermo Fisher Scientific, Waltham, MA, USA) supplemented with 10% fetal bovine serum (Thermo Fisher Scientific, Waltham, MA, USA), with added 100 IU/mL penicillin (Sigma Aldrich, Steinheim, Germany) and 100 µg/mL streptomycin (Sigma Aldrich). PrestoBlue reagent is a resazurin-based solution that functions as a cell viability indicator. Metabolically active cells are capable of reducing the PrestoBlue reagent, with the colorimetric changes used as an indicator to quantify the viability of cells in culture. This change can be determined by measuring the fluorescence. After 24 h of incubation with the compounds PrestoBlue reagent was added to wells of a microplate. After 20 min of incubation at 37 °C, the fluorescence intensity (EX 530; EM 580 nm) was measured in a plate reader. Viability values were calculated as a percentage of live cells with respect to the control sample (DMSO). The negative control was medium without cells. Astemizole was used as a reference substance.

[6] = system: latency time to pain reaction; assay: Hot plate test; type: in vivo; conditions: mice, 5 mg/kg, p < 0.001
Experimental: The hot plate test was carried out based on the Eddy and Leimbach (1953) method. In this test, the apparatus was equipped with an electrically heated surface with a temperature controller that maintains surface temperature to a set point. Herein, the temperature was set at 55 °C. The animals were treated ip either with the test compounds, or vehicle 30 min before placing the animal on a hot plate apparatus. Latency time to pain reaction, i.e., the time until the animal licked its back paws or jumped was recorded by means of the stopwatch.

## Cc1ccsc1C1CC(=O)N(CCCN2CCN(c3ccc(F)cc3)CC2)C1=O (racemic) (as salt: hydrochloride) [Compound 5, (R,S)-1-(3-(4-(4-Fluorophenyl)piperazin-1-yl)propyl)-3-(3-methylthiophen-2-yl)pyrrolidine-2,5-dione hydrochloride]
other
  melting point: 160 to 162 °C

## Cc1ccsc1C1CC(=O)N(CCCN2CCN(c3cccc(C(F)(F)F)c3)CC2)C1=O (racemic) (as salt: hydrochloride) [Compound 6, (R,S)-3-(3-Methylthiophen-2-yl)-1-(3-(4-(3-(trifluoromethyl)phenyl)piperazin-1-yl)propyl)pyrrolidine-2,5-dione hydrochloride]
other
  melting point: 183 to 185 °C

## Cc1ccsc1C1CC(=O)N(CCCN2CCN(c3cccc(Cl)c3)CC2)C1=O (racemic) (as salt: hydrochloride) [Compound 7, (R,S)-1-(3-(4-(3-Chlorophenyl)piperazin-1-yl)propyl)-3-(3-methylthiophen-2-yl)pyrrolidine-2,5-dione hydrochloride]
other
  melting point: 181.5 to 183.5 °C

## Cc1ccsc1C1CC(=O)N(CCCN2CCN(c3ccc(Cl)cc3)CC2)C1=O (racemic) (as salt: hydrochloride) [Compound 8, (R,S)-1-(3-(4-(4-Chlorophenyl)piperazin-1-yl)propyl)-3-(3-methylthiophen-2-yl)pyrrolidine-2,5-dione hydrochloride]
other
  melting point: 68 to 70 °C

## Cc1ccsc1C1CC(=O)N(CCCN2CCN(c3ccc(Cl)c(Cl)c3)CC2)C1=O (racemic) (as salt: hydrochloride) [Compound 9, (R,S)-1-(3-(4-(3,4-Dichlorophenyl)piperazin-1-yl)propyl)-3-(3-methylthiophen-2-yl)pyrrolidine-2,5-dione hydrochloride]
other
  melting point: 101 to 103 °C

## Cc1ccsc1C1CC(=O)N(CCCN2CCN(c3ccc(F)cc3)CC2)C1=O (racemic) [Compound 5, (R,S)-1-(3-(4-(4-Fluorophenyl)piperazin-1-yl)propyl)-3-(3-methylthiophen-2-yl)pyrrolidine-2,5-dione hydrochloride]
[1]
  responders at 100 mg/kg: 0%
[2]
  responders at 100 mg/kg: 0%
[3]
  NT: number of mice with motor impairment/number of mice tested: 4/4

## Cc1ccsc1C1CC(=O)N(CCCN2CCN(c3cccc(Cl)c3)CC2)C1=O (racemic) [Compound 7, (R,S)-1-(3-(4-(3-Chlorophenyl)piperazin-1-yl)propyl)-3-(3-methylthiophen-2-yl)pyrrolidine-2,5-dione hydrochloride]
[1]
  responders at 100 mg/kg: 0%
[2]
  responders at 100 mg/kg: 0%
[3]
  NT: number of mice with motor impairment/number of mice tested: 2/4

## Cc1ccsc1C1CC(=O)N(CCCN2CCN(c3ccc(Cl)cc3)CC2)C1=O (racemic) [Compound 8, (R,S)-1-(3-(4-(4-Chlorophenyl)piperazin-1-yl)propyl)-3-(3-methylthiophen-2-yl)pyrrolidine-2,5-dione hydrochloride]
[1]
  responders at 100 mg/kg: 25%
[2]
  responders at 100 mg/kg: 25%
[3]
  NT: number of mice with motor impairment/number of mice tested: 0/4

## Cc1ccsc1C1CC(=O)N(CC(=O)N2CCOCC2)C1=O (racemic) [Compound 10, (R,S)-3-(3-Methylthiophen-2-yl)-1-(2-morpholino-2-oxoethyl)pyrrolidine-2,5-dione]
other
  melting point: 142 to 144 °C
[1]
  responders at 100 mg/kg: 0%
[2]
  responders at 100 mg/kg: 25%
[3]
  NT: number of mice with motor impairment/number of mice tested: 0/4

## Cc1ccsc1C1CC(=O)N(CC(=O)N2CCN(c3ccc(F)cc3)CC2)C1=O (racemic) [Compound 11, (R,S)-1-(2-(4-(4-Fluorophenyl)piperazin-1-yl)-2-oxoethyl)-3-(3-methylthiophen-2-yl)pyrrolidine-2,5-dione]
other
  melting point: 165 to 166 °C
[1]
  responders at 100 mg/kg: 0%
[2]
  responders at 100 mg/kg: 0%
[3]
  NT: number of mice with motor impairment/number of mice tested: 0/4

## Cc1ccsc1C1CC(=O)N(CC(=O)N2CCN(c3cccc(C(F)(F)F)c3)CC2)C1=O (racemic) [Compound 12, (R,S)-3-(3-Methylthiophen-2-yl)-1-(2-oxo-2-(4-(3-(trifluoromethyl)phenyl)piperazin-1-yl)ethyl)pyrrolidine-2,5-dione]
other
  melting point: 135 to 137 °C
[1]
  responders at 100 mg/kg: 0%
[2]
  responders at 100 mg/kg: 0%
[3]
  NT: number of mice with motor impairment/number of mice tested: 1/4

## Cc1ccsc1C1CC(=O)N(CC(=O)N2CCN(c3ccccc3Cl)CC2)C1=O (racemic) [Compound 13, (R,S)-1-(2-(4-(2-Chlorophenyl)piperazin-1-yl)-2-oxoethyl)-3-(3-methylthiophen-2-yl)pyrrolidine-2,5-dione]
other
  melting point: 141 to 143 °C
[1]
  responders at 100 mg/kg: 0%
[2]
  responders at 100 mg/kg: 25%
[3]
  NT: number of mice with motor impairment/number of mice tested: 0/4

## Cc1ccsc1C1CC(=O)N(CC(=O)N2CCN(c3ccc(Cl)cc3)CC2)C1=O (racemic) [Compound 15, (R,S)-1-(2-(4-(4-Chlorophenyl)piperazin-1-yl)-2-oxoethyl)-3-(3-methylthiophen-2-yl)pyrrolidine-2,5-dione]
other
  melting point: 179 to 181 °C
[1]
  responders at 100 mg/kg: 0%
[2]
  responders at 100 mg/kg: 25%
[3]
  NT: number of mice with motor impairment/number of mice tested: 0/4

## Cc1ccsc1C1CC(=O)N(CC(=O)N2CCN(c3cccc(Cl)c3Cl)CC2)C1=O (racemic) [Compound 16, (R,S)-1-(2-(4-(2,3-Dichlorophenyl)piperazin-1-yl)-2-oxoethyl)-3-(3-methylthiophen-2-yl)pyrrolidine-2,5-dione]
other
  melting point: 112 to 113.5 °C
[1]
  responders at 100 mg/kg: 0%
[2]
  responders at 100 mg/kg: 0%
[3]
  NT: number of mice with motor impairment/number of mice tested: 0/4

## Cc1ccsc1C1CC(=O)N(CC(=O)N2CCN(c3ccc(Cl)c(Cl)c3)CC2)C1=O (racemic) [Compound 17, (R,S)-1-(2-(4-(3,4-Dichlorophenyl)piperazin-1-yl)-2-oxoethyl)-3-(3-methylthiophen-2-yl)pyrrolidine-2,5-dione]
[1]
  responders at 100 mg/kg: 0%
[2]; mice ip, 95% confidence limit in brackets
  ED50: > 150 mg/kg
[2]
  responders at 100 mg/kg: 50%
[3]
  NT: number of mice with motor impairment/number of mice tested: 0/4
[4]
  scPTZ: effect in words: no significant effect

## COc1ccc(CCN2CCC(Nc3nc4ccccc4n3Cc3ccc(F)cc3)CC2)cc1 [Astemizole, reference compound]
[5]
  Hepatotoxicity in HepG2 cells, in words: inhibits the viability of HepG2 cells in a dose-dependent manner

## CN1CC[C@]23c4c5ccc(O)c4O[C@H]2[C@@H](O)C=C[C@H]3[C@H]1C5 [morphine, reference compound]
[6]
  Hot plate: prolongation of latency time to pain reaction: 74%
